Reference: patent US20200231638A1, “STABILIZED ANTI-MICROBIAL PEPTIDES” (priority 2015, published 2020)
Bridge positions count the residues as written; N and C are the ends. Square brackets hold non-standard residues; d marks the D form. Peptide text beside a SMILES is read from it. R8 = C=CCCCCCC[C@@](C)(N)C(=O)O; S5 = C=CCCC[C@](C)(N)C(=O)O; Nle = CCCC[C@H](N)C(=O)O

Assays:
E. coli = format: cell-based, Escherichia coli
Method in brief: (§1)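 Broth microdilution in anion-exchange-refined Mueller-Hinton broth; serially diluted peptide mixed with bacteria at 5×10^5 CFU/ml final inoculum. Incubated 20-24 hours at 37° C. MIC taken as lowest peptide concentration with no visible growth.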

B. cereus = format: cell-based, Bacillus cereus
Method in brief: as §1

S. aureus = format: cell-based, Staphylococcus aureus
Method in brief: as §1

P. aeruginosa = format: cell-based, Pseudomonas aeruginosa
Method in brief: as §1

human red blood cells = format: cell-based; settings: red cells of human, 1 h, 25
Method in brief: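 Hemolysis expressed as absorbance of released hemoglobin (570 nm) normalized between untreated and 1% Triton-X100 controls, with MHC taken as peptide concentration giving under 1% release. Peptide dilutions were exposed for 1 h at 37° C to a 1% (v/v) suspension of washed human red cells in PBS.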

| SMILES | MIC E. coli (E. coli) | MIC B. cereus (B. cereus) | MIC S. aureus (S. aureus) | MIC P. aeruginosa (P. aeruginosa) | % Hemolysis at 25 μg/ml (human red blood cells) |
| --- | --- | --- | --- | --- | --- |
| CCCC[C@H](NC(=O)[C@]1(C)CCCC=CCCC[C@](C)(NC(=O)[C@H](C)NC(=O)[C@H](CCCCN)NC(=O)CNC(=O)[C@H](Cc2ccccc2)NC(=O)[C@H](CCCCN)NC(=O)[C@H](CCCCN)NC(=O)[C@H](C)NC(=O)[C@H](CCCCN)NC(=O)[C@H](Cc2c[nH]cn2)NC(=O)[C@H](CC(C)C)NC(=O)[C@H](Cc2ccccc2)NC(=O)[C@H](CCCCN)NC(=O)CNC(=O)[C@@H](NC(=O)CN)[C@@H](C)CC)C(=O)N[C@@H](C(C)C)C(=O)NCC(=O)N[C@@H](CCC(=O)O)C(=O)N1)C(=O)N[C@@H](CC(N)=O)C(=O)N[C@@H](CO)C(N)=O [Mag(i + 4)15(S8K), GIGKFLHKAKKFGKAXVGEXBNS] (H-GIGKFLHKAKKFGKA[S5]VGE[S5][Nle]NS-NH2; staple 16-20) | 1.6 µg/mL | 3.1 µg/mL | 6.2 µg/mL | 6.2 µg/mL | 3.4% |
| CCCC[C@H](NC(=O)[C@]1(C)CCCC=CCCC[C@](C)(NC(=O)[C@H](C)NC(=O)[C@H](CCCCN)NC(=O)CNC(=O)[C@H](Cc2ccccc2)NC(=O)[C@H](CCCCN)NC(=O)[C@H](CCCCN)NC(=O)[C@H](C)NC(=O)[C@H](CO)NC(=O)[C@H](Cc2c[nH]cn2)NC(=O)[C@H](CC(C)C)NC(=O)[C@H](Cc2ccccc2)NC(=O)[C@H](CCCCN)NC(=O)CNC(=O)[C@@H](NC(=O)CN)[C@@H](C)CC)C(=O)N[C@@H](C(C)C)C(=O)NCC(=O)N[C@@H](CCC(=O)O)C(=O)N1)C(=O)N[C@@H](CC(N)=O)C(=O)N[C@@H](CCC(=O)O)C(N)=O [Mag(i + 4)15(S23E), GIGKFLHSAKKFGKAXVGEXBNE] (H-GIGKFLHSAKKFGKA[S5]VGE[S5][Nle]NE-NH2; staple 16-20) | 3.1 µg/mL | 12.5 µg/mL | 25 µg/mL | 12.5 µg/mL | 4.9% |
| CCCC[C@H](NC(=O)[C@]1(C)CCCC=CCCC[C@](C)(NC(=O)[C@H](C)NC(=O)[C@H](CCCCN)NC(=O)CNC(=O)[C@H](Cc2ccccc2)NC(=O)[C@H](CCCCN)NC(=O)[C@H](CCCCN)NC(=O)[C@H](C)NC(=O)[C@H](CO)NC(=O)[C@H](Cc2c[nH]cn2)NC(=O)[C@H](CC(C)C)NC(=O)[C@H](Cc2ccccc2)NC(=O)[C@H](CCCCN)NC(=O)CNC(=O)[C@@H](NC(=O)CN)[C@@H](C)CC)C(=O)N[C@@H](C(C)C)C(=O)NCC(=O)N[C@@H](CCC(=O)O)C(=O)N1)C(=O)N[C@@H](CC(N)=O)C(=O)N[C@@H](CCCCN)C(N)=O [Mag(i + 4)15(S23K), GIGKFLHSAKKFGKAXVGEXBNK] (H-GIGKFLHSAKKFGKA[S5]VGE[S5][Nle]NK-NH2; staple 16-20) | 1.6 µg/mL | 6.2 µg/mL | 50 µg/mL | 3.1 µg/mL | 5.0% |
| CCCC[C@H](NC(=O)[C@]1(C)CCCC=CCCC[C@](C)(NC(=O)[C@H](C)NC(=O)[C@H](CCCCN)NC(=O)CNC(=O)[C@H](Cc2ccccc2)NC(=O)[C@H](CCCCN)NC(=O)[C@H](CCCCN)NC(=O)[C@H](C)NC(=O)[C@H](CO)NC(=O)[C@H](Cc2c[nH]cn2)NC(=O)[C@H](CC(C)C)NC(=O)[C@H](Cc2ccccc2)NC(=O)[C@H](CCCCN)NC(=O)CNC(=O)[C@@H](NC(=O)CN)[C@@H](C)CC)C(=O)N[C@@H](CCC(=O)O)C(=O)NCC(=O)N[C@@H](CCC(=O)O)C(=O)N1)C(=O)N[C@@H](CC(N)=O)C(=O)N[C@@H](CO)C(N)=O [Mag(i + 4)15(V17E), GIGKFLHSAKKFGKAXEGEXBNS] (H-GIGKFLHSAKKFGKA[S5]EGE[S5][Nle]NS-NH2; staple 16-20) | 50 µg/mL | >50 µg/mL | >50 µg/mL | >50 µg/mL | 0.5% |
| CCCC[C@H](NC(=O)[C@]1(C)CCCC=CCCC[C@](C)(NC(=O)[C@H](C)NC(=O)[C@H](CCCCN)NC(=O)CNC(=O)[C@H](Cc2ccccc2)NC(=O)[C@H](CCCCN)NC(=O)[C@H](CCCCN)NC(=O)[C@H](C)NC(=O)[C@H](CO)NC(=O)[C@H](Cc2c[nH]cn2)NC(=O)[C@H](CC(C)C)NC(=O)[C@H](Cc2ccccc2)NC(=O)[C@H](CCCCN)NC(=O)CNC(=O)[C@@H](NC(=O)CN)[C@@H](C)CC)C(=O)N[C@@H](CCCCN)C(=O)NCC(=O)N[C@@H](CCC(=O)O)C(=O)N1)C(=O)N[C@@H](CC(N)=O)C(=O)N[C@@H](CO)C(N)=O [Mag(i + 4)15(V17K), GIGKFLHSAKKFGKAXKGEXBNS] (H-GIGKFLHSAKKFGKA[S5]KGE[S5][Nle]NS-NH2; staple 16-20) | 3.1 µg/mL | 50 µg/mL | >50 µg/mL | 12.5 µg/mL | 2.2% |
| CCCC[C@H](NC(=O)[C@]1(C)CCCC=CCCC[C@](C)(NC(=O)[C@H](C)NC(=O)[C@H](CCCCN)NC(=O)CNC(=O)[C@H](Cc2ccccc2)NC(=O)[C@H](CCCCN)NC(=O)[C@H](CCCCN)NC(=O)[C@H](C)NC(=O)[C@H](CO)NC(=O)[C@H](Cc2c[nH]cn2)NC(=O)[C@H](CC(C)C)NC(=O)[C@H](Cc2ccccc2)NC(=O)[C@H](CCCCN)NC(=O)CNC(=O)[C@@H](NC(=O)CN)[C@@H](C)CC)C(=O)N[C@@H](C(C)C)C(=O)NCC(=O)N[C@@H](CCC(=O)O)C(=O)N1)C(=O)N[C@@H](CC(N)=O)C(=O)N[C@@H](CO)C(N)=O [Mag(i + 4)15] (H-GIGKFLHSAKKFGKA[S5]VGE[S5][Nle]NS-NH2; staple 16-20) | 1.6 µg/mL | 6.2 µg/mL | 12.5 µg/mL | 6.2 µg/mL | 11.9% |
| CC[C@H](C)[C@H](NC(=O)CN)C(=O)NCC(=O)N[C@@H](CCCCN)C(=O)N[C@@H](Cc1ccccc1)C(=O)N[C@@H](CC(C)C)C(=O)N[C@@H](Cc1c[nH]cn1)C(=O)N[C@@H](CO)C(=O)N[C@@H](C)C(=O)N[C@@H](CCCCN)C(=O)N[C@@H](CCCCN)C(=O)N[C@@H](Cc1ccccc1)C(=O)NCC(=O)N[C@@H](CCCCN)C(=O)N[C@@H](C)C(=O)N[C@@H](Cc1ccccc1)C(=O)N[C@@]1(C)CCCC=CCCC[C@@](C)(C(=O)N[C@@H](CC(N)=O)C(=O)N[C@@H](CO)C(N)=O)NC(=O)[C@H]([C@@H](C)CC)NC(=O)[C@H](CCC(=O)O)NC(=O)CNC1=O [Mag(i + 4)16, GIGKFLHSAKKFGKAFXGEIXNS] (H-GIGKFLHSAKKFGKAF[S5]GEI[S5]NS-NH2; staple 17-21) | 3.1 µg/mL | 12.5 µg/mL | 50 µg/mL | 6.2 µg/mL | 7.8% |
| CCCC[C@@H]1NC(=O)[C@H]([C@@H](C)CC)NC(=O)[C@H](CCC(=O)O)NC(=O)[C@@](C)(NC(=O)[C@@H](NC(=O)[C@H](Cc2ccccc2)NC(=O)[C@H](C)NC(=O)[C@H](CCCCN)NC(=O)CNC(=O)[C@H](Cc2ccccc2)NC(=O)[C@H](CCCCN)NC(=O)[C@H](CCCCN)NC(=O)[C@H](C)NC(=O)[C@H](CO)NC(=O)[C@H](Cc2c[nH]cn2)NC(=O)[C@H](CC(C)C)NC(=O)[C@H](Cc2ccccc2)NC(=O)[C@H](CCCCN)NC(=O)CNC(=O)[C@@H](NC(=O)CN)[C@@H](C)CC)C(C)C)CCCC=CCCC[C@@](C)(C(=O)N[C@@H](CO)C(N)=O)NC1=O [Mag(i + 4)17] (H-GIGKFLHSAKKFGKAFV[S5]EI[Nle][S5]S-NH2; staple 18-22) | 1.6 µg/mL | 1.6 µg/mL | 3.1 µg/mL | 6.2 µg/mL | 56.0% |
| CCCC[C@@H]1NC(=O)[C@H]([C@@H](C)CC)NC(=O)[C@@](C)(NC(=O)CNC(=O)[C@@H](NC(=O)[C@H](Cc2ccccc2)NC(=O)[C@H](C)NC(=O)[C@H](CCCCN)NC(=O)CNC(=O)[C@H](Cc2ccccc2)NC(=O)[C@H](CCCCN)NC(=O)[C@H](CCCCN)NC(=O)[C@H](C)NC(=O)[C@H](CO)NC(=O)[C@H](Cc2c[nH]cn2)NC(=O)[C@H](CC(C)C)NC(=O)[C@H](Cc2ccccc2)NC(=O)[C@H](CCCCN)NC(=O)CNC(=O)[C@@H](NC(=O)CN)[C@@H](C)CC)C(C)C)CCCC=CCCC[C@@](C)(C(N)=O)NC(=O)[C@H](CC(N)=O)NC1=O [Mag(i + 4)18, GIGKFLHSAKKFGKAFVGXIBNX] (H-GIGKFLHSAKKFGKAFVG[S5]I[Nle]N[S5]-NH2; staple 19-23) | 1.6 µg/mL | 3.1 µg/mL | 1.6 µg/mL | 3.1 µg/mL | 96.5% |
| CCCC[C@H](NC(=O)[C@@H](NC(=O)[C@H](CCC(=O)O)NC(=O)CNC(=O)[C@@H](NC(=O)[C@H](Cc1ccccc1)NC(=O)[C@H](C)NC(=O)[C@H](CCCCN)NC(=O)CNC(=O)[C@H](Cc1ccccc1)NC(=O)[C@H](CCCCN)NC(=O)[C@H](CCCCN)NC(=O)[C@]1(C)CCCC=CCCCCCC[C@@](C)(NC(=O)CN)C(=O)NCC(=O)N[C@@H](CCCCN)C(=O)N[C@@H](Cc2ccccc2)C(=O)N[C@@H](CC(C)C)C(=O)N[C@@H](Cc2c[nH]cn2)C(=O)N[C@@H](CO)C(=O)N1)C(C)C)[C@@H](C)CC)C(=O)N[C@@H](CC(N)=O)C(=O)N[C@@H](CO)C(N)=O [Mag(i + 7)1] (H-G[R8]GKFLHS[S5]KKFGKAFVGEI[Nle]NS-NH2; staple 2-9 (inferred); N-terminus and C-terminus assumed) | 3.1 µg/mL | 3.1 µg/mL | 12.5 µg/mL | 3.1 µg/mL | 49.9% |
